Assay results as given in patent US20260062422A1 (Halda Therapeutics OpCo, Inc., priority 2022, published 2026).

Tests used:
androgen receptor = molecular target: T1, androgen receptor (Homo sapiens, UniProt P10275); assay: Assay for binding affinity to androgen receptor ([3H]methyltrienolone radioligand, cell cytosol); conditions: 1 nM [3H]methyltrienolone, 24 hours at 4° C., Table 5
T1 sequence (P10275 1-920 T878A): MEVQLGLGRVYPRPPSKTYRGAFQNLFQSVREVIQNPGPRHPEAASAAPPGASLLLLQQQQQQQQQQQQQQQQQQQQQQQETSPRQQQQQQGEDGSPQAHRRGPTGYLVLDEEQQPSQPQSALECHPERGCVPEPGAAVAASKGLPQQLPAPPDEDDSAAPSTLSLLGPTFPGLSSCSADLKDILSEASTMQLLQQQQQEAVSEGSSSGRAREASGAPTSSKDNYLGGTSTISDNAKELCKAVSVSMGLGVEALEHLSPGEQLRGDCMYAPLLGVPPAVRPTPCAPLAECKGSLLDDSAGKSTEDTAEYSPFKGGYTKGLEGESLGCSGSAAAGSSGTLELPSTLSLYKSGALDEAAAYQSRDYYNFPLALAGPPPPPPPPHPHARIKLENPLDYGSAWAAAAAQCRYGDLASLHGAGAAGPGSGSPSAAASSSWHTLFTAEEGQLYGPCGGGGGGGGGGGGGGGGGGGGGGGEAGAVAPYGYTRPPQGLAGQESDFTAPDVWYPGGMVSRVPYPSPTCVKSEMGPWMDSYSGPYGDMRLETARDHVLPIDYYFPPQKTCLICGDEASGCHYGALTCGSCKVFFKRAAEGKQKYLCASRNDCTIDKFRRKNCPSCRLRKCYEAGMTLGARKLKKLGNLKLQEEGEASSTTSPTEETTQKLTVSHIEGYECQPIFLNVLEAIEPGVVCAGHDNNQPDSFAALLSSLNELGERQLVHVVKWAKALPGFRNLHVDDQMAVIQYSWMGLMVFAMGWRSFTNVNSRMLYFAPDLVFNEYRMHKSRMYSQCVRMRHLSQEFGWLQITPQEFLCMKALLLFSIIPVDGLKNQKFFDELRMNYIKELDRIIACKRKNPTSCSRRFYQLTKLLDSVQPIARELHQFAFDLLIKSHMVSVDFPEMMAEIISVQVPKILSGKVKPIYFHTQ
Protocol: Fractions of cell cytosol ([…] cell/point) were incubated for 24 hours at 4° C. with 1 nM [^3H]methyltrienolone in the absence or presence of the test compound in a buffer containing 25 mM Hepes-Tris (pH 7.4), 1 mM EDTA, 10 mM Na2MoO4, 2 mM DTT, 5 μM triamcinolone acetonide, and 10% glycerol. Nonspecific binding was determined in the presence of 1 μM testosterone. Following incubation, the samples were filtered rapidly under vacuum through glass fiber filters (GF/B, Packard) presoaked with 0.3% PEI and rinsed several times with ice-cold 50 mM Tris-HCl using a 96-sample cell harvester (Unifilter, Packard). The filters were dried then counted for radioactivity in a scintillation counter (Topcount, Packard) using a scintillation cocktail (Microscint 0, Packard). The results are expressed as a percent inhibition of the control radioligand specific binding. The standard reference compound is testosterone, which is tested in each experiment at several concentrations to obtain a competition curve from which its IC50 is calculated.

T47D cells = assay: Cellular growth inhibition assay for T47D cells, CellTiter-Glo; assay type: cell-based, human; conditions: Homo sapiens, T47D, 72 h, 72 hours treatment, CellTiter-Glo 2.0 cell viability
In short: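 Growth inhibition as GI50, fitted with four parameters to CellTiter-Glo luminescence after 72 h of compound exposure (0.5% DMSO). Cells were T47D, grown in insulin-supplemented (0.2 units/mL) DMEM with 10% FBS and treated one day post-seeding.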

progesterone receptor = molecular target: T2, progesterone receptor (Homo sapiens, UniProt P06401); assay: PR Human Progesterone NHR Binding (Agonist Radioligand) Assay, T47D cytosol; conditions: T47D cytosolic fractions, 0.5 nM [3H]progesterone, 1 hour at 4° C., Table 16
T2 construct: host or cells: T47D cells (cytosolic fraction)
T2 sequence (P06401 1-933): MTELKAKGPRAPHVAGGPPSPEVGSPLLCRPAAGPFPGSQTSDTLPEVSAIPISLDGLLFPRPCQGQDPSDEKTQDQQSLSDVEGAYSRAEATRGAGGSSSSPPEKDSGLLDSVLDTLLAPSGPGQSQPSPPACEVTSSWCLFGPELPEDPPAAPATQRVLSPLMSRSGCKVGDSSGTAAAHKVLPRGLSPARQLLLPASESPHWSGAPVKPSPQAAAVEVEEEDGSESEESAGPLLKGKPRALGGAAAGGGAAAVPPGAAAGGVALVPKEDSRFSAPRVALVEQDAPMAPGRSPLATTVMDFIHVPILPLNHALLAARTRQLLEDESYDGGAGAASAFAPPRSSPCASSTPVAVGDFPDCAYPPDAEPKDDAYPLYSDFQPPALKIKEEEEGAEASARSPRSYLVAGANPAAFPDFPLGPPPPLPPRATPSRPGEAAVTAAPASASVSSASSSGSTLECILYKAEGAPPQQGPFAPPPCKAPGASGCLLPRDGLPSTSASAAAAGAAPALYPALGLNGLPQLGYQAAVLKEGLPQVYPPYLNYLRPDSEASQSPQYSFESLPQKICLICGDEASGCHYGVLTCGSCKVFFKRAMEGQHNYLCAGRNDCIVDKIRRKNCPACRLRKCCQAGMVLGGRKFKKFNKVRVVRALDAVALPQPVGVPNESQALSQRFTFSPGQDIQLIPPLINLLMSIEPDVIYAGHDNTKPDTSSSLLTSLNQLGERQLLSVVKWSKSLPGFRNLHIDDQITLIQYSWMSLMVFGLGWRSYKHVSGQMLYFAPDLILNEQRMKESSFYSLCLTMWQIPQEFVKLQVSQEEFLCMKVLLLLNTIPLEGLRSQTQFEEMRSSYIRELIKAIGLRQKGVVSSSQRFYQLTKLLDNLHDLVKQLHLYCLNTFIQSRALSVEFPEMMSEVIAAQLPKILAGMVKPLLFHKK
Protocol: Compounds were tested using the PR Human Progesterone NHR Binding (Agonist Radioligand) Assay, Cerep at Eurofins Discovery using a modified version of the protocol from Sarup et al. (Cancer Res 1988; 48:5071-5078). Briefly, cytosolic fractions of T47D cells were incubated with 0.5 nM [^3H]progesterone for 1 hour at 4° C. in the absence or presence of the test compound. Nonspecific binding was determined in the presence of 1 μM promegestone. Reactions were subjected to scintillation counting. Results are expressed as a percent inhibition of the control radioligand specific binding.

BRD4-BD1 = molecular target: T3, BRD4-BD1 (Homo sapiens, UniProt O60885); assay: bromoKdELECT assay for binding affinity to BRD4-BD1; conditions: Table 6
T3 construct: made in house; host or cells: T7 phage grown in an E. coli host derived from BL21
Protocol: (§1) Compounds were tested using a bromoKdELECT assay. T7 phage strains displaying bromodomains were grown in parallel in 24-well blocks in an E. coli host derived from the BL21 strain. E. coli were grown to log-phase and infected with T7 phage from a frozen stock (multiplicity of infection=0.4) and incubated with shaking at 32° C. until lysis (90-150 minutes). The lysates were centrifuged (5,000×g) and filtered (0.2 μm) to remove cell debris. Streptavidin-coated magnetic beads were treated with biotinylated small molecule or acetylated peptide ligands for 30 minutes at room temperature to generate affinity resins for bromodomain assays. The liganded beads were blocked with excess biotin and washed with blocking buffer (SeaBlock (Pierce), 1% BSA, 0.05% Tween 20, 1 mM DTT) to remove unbound ligand and to reduce nonspecific phage binding. Binding reactions were assembled by combining bromodomains, liganded affinity beads, and test compounds in 1× binding buffer (17% SeaBlock, 0.33×PBS, 0.04% Tween 20, 0.02% BSA, 0.004% Sodium azide, 7.4 mM DTT). Test compounds were prepared as 1000× stocks in 100% DMSO. Kds were determined using an 11-point 3-fold compound dilution series with one DMSO control point. All compounds for Kd measurements are distributed by acoustic transfer (non-contact dispensing) in 100% DMSO. The compounds were then diluted directly into the assays such that the final concentration of DMSO was 0.09%. All reactions performed in polypropylene 384-well plates. Each was a final volume of 0.02 ml. The assay plates were incubated at room temperature with shaking for 1 hour and the affinity beads were washed with wash buffer (1×PBS, 0.05% Tween 20). The beads were then resuspended in elution buffer (1×PBS, 0.05% Tween 20, 2 M non-biotinylated affinity ligand) and incubated at room temperature with shaking for 30 minutes. The bromodomain concentration in the eluates was measured by qPCR.

BRD4-BD2 = molecular target: T4, BRD4-BD2 (Homo sapiens, UniProt O60885); assay: bromoKdELECT assay for binding affinity to BRD4-BD2; conditions: Table 7
T4 construct: made in house; host or cells: T7 phage grown in an E. coli host derived from BL21
Protocol: as §1, with “2 μM” for “2 M”

[1] = system: T-Rex 293 cell line SC3 cells having increased expression of androgen receptor protein due to exposure to doxycycline; assay: Cellular growth inhibition, T-Rex 293 SC3 cells with doxycycline (androgen receptor induced), CellTiter-Glo; assay type: cell-based; conditions: 72 h, T-Rex 293 SC3 cells with 10 ng/mL doxycycline (increased androgen receptor expression)
In short: (§2)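 SC3 is a T-Rex 293 clone stably transfected with wild-type androgen receptor in pcDNA4/TO, inducible by 10 ng/mL doxycycline. Cells were grown in phenol red-free DMEM with 10% charcoal-dextran FBS, with or without doxycycline, dosed 24 h after seeding (0.5% DMSO) for 72 h. Viability was read by CellTiter-Glo 2.0 luminescence and GI50 obtained from four-parameter fits.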

[2] = system: T-Rex 293 cell line SC3 cells lacking increased expression of androgen receptor protein; assay: Cellular growth inhibition, T-Rex 293 SC3 cells without doxycycline, CellTiter-Glo; assay type: cell-based; conditions: 72 h, T-Rex 293 SC3 cells not exposed to doxycycline, CellTiter-Glo 2.0
In short: as §2

VCaP cells = assay: Cellular growth inhibition assay for VCaP cells, CellTiter-Glo; assay type: cell-based, human; conditions: Homo sapiens, VCaP, 72 h, 72 hours treatment, CellTiter-Glo 2.0
In short: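 GI50 values come from four-parameter curve fits of luminescence data normalized to a zero baseline. Compound, in medium with 0.5% DMSO, was added one day after plating and left for 72 h before CellTiter-Glo 2.0 addition.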

| SMILES | Kd (androgen receptor) [nM] | GI50 (T47D cells) [nM] | Ki (progesterone receptor) [nM] | Kd (BRD4-BD1) [nM] | Kd (BRD4-BD2) [nM] | GI50 [1] [nM] | GI50 [2] [nM] | GI50 (VCaP cells) [nM] |
| --- | --- | --- | --- | --- | --- | --- | --- | --- |
| Cc1sc2c(c1C)C(c1ccc(N3CC(CC4CN(c5cnc(C(=O)N[C@H]6C(C)(C)[C@H](Oc7ccc(C#N)c(Cl)c7)C6(C)C)cn5)C4)C3)cc1)=N[C@@H](C)c1nnc(C)n1-2 [Compound I-503] | 50 to 500 | < 500 | < 50 |  |  |  |  |  |
| Cc1sc2c(c1C)C(c1ccc(Cl)cc1)=N[C@@H](CC(=O)NCCOCCOCCOC1CCN(c3ncc(C(=O)N[C@H]4C(C)(C)[C@H](Oc5ccc(C#N)c(Cl)c5)C4(C)C)cn3)C1)c1nnc(C)n1-2 (some centres unmarked) [Compound I-16] |  |  |  | 500 to 2500 | < 50 | < 500 | 1500 to 3000 |  |
| Cc1sc2c(c1C)C(c1ccc(Cl)cc1)=N[C@@H](CC(=O)NCCOCCOCCOC1CCCN(c3ncc(C(=O)N[C@H]4C(C)(C)[C@H](Oc5ccc(C#N)c(Cl)c5)C4(C)C)cn3)C1)c1nnc(C)n1-2 (some centres unmarked) [Compound I-15] | < 50 |  |  | 500 to 2500 |  | < 500 | 1500 to 3000 |  |
| Cc1sc2c(c1C)C(c1ccc([C@@H]3CC[C@]4(C3)CN(c3ncc(C(=O)N[C@H]5C(C)(C)[C@H](Oc6ccc(C#N)c(Cl)c6)C5(C)C)cn3)CCO4)cc1)=N[C@@H](Cc1ncco1)c1nnc(C)n1-2 [Compound I-405] |  | < 500 |  |  |  | < 500 | 500 to 1500 | < 500 |
| Cc1sc2c(c1C)C(c1ccc(O[C@@H]3CO[C@]4(CCCN(c5ncc(C(=O)N[C@H]6C(C)(C)[C@H](Oc7ccc(C#N)c(Cl)c7)C6(C)C)cn5)C4)C3)cc1)=N[C@@H](Cc1ncco1)c1nnc(C)n1-2 [Compound I-187] |  | < 500 |  |  |  | < 500 | < 500 | < 500 |
| Cc1sc2c(c1C)C(c1ccc(-c3ccsc3OC3CCN(c4ncc(C(=O)N[C@H]5C(C)(C)[C@H](Oc6ccc(C#N)c(Cl)c6)C5(C)C)cn4)CC3)cc1)=N[C@@H](Cc1ncco1)c1nnc(C)n1-2 [Compound I-444] |  | > 3000 |  |  |  | < 500 | > 3000 | < 500 |
